Data published in patent US9636338B2, “Phenyl-dihydropyridine derivatives as inhibitors of aldosterone synthase” (Hoffmann-La Roche Inc., priority 2013, dated 2017).

Columns and labels:
[1] = rat CKD model, cited from earlier work; for plasma aldosterone: FAD286 4 weeks of treatment, spironolactone 4 and 8 weeks; for angiotensin II and salt-stimulated PAI-1 mRNA expression: aorta and heart
human CYP11B1 = human CYP11B1 (Homo sapiens (Human), UniProt P15538); assay: G-402 cellular enzyme assay, human CYP11B1 (cortisol release, HTRF); format: cell-based; details: G-402 cells expressing human CYP11B1; 1 μM Deoxycortisol
human CYP11B1, sequence (P15538 25-503): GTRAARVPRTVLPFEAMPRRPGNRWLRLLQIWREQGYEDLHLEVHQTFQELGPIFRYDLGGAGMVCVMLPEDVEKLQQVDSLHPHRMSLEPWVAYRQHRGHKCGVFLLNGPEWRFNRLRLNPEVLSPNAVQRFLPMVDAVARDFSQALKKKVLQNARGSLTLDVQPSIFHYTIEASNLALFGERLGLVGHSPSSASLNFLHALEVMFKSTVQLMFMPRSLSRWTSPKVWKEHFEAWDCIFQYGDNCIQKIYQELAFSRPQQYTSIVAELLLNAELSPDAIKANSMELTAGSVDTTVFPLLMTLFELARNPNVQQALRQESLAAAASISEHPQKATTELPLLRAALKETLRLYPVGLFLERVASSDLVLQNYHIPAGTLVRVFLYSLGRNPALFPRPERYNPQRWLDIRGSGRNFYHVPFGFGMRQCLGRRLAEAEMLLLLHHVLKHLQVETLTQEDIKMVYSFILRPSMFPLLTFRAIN
Description: (§1) Herein we identified the use of the G-402 cell line as a host cell to ectopically express (transiently or stably) enzymes of the CYP11 family. Specifically we developed stable G-402 cells expressing ectopically human CYP11B1, human CYP11B2, human CYP11A1, cynmolgus CYP11B1 or cynomolgus CYP11B2 enzyme activity. Importantly the identified cell line G-402 expresses co-factors (adrenodoxin and adrenodoxin reductase) important for the activity of the CYP11 family and no relevant enzyme activity of the CYP11 family (in comparison to H295R cells) was detected in these cells. Therefore the G-402 cell line is uniquely suited as a host cell for the ectopic expression of enzymes from the CYP11 family. G-402 cells can be obtained from ATCC (CRL-1440) and were originally derived from a renal leiomyoblastoma.
(§2) The expression plasmids contains the ORF for either human/cyno CYP11B1 or CYP11B2 under the control of a suitable promoter (CMV-promoter) and a suitable resistance marker (neomycin). Using standard techniques the expression plasmid is transfected into G-402 cells and these cells are then selected for expressing the given resistance markers. Individual cell-clones are then selected and assessed for displaying the desired enzymatic activity using 11-Deoxycorticosterone (Cyp11B2) or 11-Deoxycortisol (Cyp11B1) as a substrate.
(§3) G-402 cells expressing CYP11 constructs were established as described above and maintained in McCoy's 5a Medium Modified, ATCC Catalog No. 30-2007 containing 10% FCS and 400 μg/ml G418 (Geneticin) at 37° C. under an atmosphere of 5% CO2/95% air. Cellular enzyme assays were performed in DMEM/F12 medium containing 2.5% charcoal treated FCS and appropriate concentration of substrate (0.3-10 uM 11-Deoxycorticosterone, 11-Deoxycortisol or Corticosterone). For assaying enzymatic activity, cells were plated onto 96 well plates and incubated for 16 h. An aliquot of the supernatant is then transferred and analyzed for the concentration of the expected product (Aldosterone for CYP11B2; Cortisol for CYP11B1). The concentrations of these steroids can be determined using HTRF assays from CisBio analyzing either Aldosterone or Cortisol.
(§4) Inhibition of the release of produced steroids can be used as a measure of the respective enzyme inhibition by test compounds added during the cellular enzyme assay. The dose dependent inhibition of enzymatic activity by a compound is calculated by means of plotting added inhibitor concentrations (x-axes) vs. measured steroid/product level (y-axes). The inhibition is then calculated by fitting the following 4-parameter sigmoidal function (Morgan-Mercer-Flodin (MMF) model) to the raw data points using the least squares method:
(§5) [formula] wherein, A is the maximum y value, B is the EC50 factor determined using XLFit, C is the minimum y value and D is the slope value.
(§6) EC50 values for compounds claimed herein were tested with the G402-based assay system described. Cyp11B2 enzyme activity was tested in presence of 1 μM Deoxycorticosterone and variable amounts of inhibitors; Cyp11B1 enzyme activity was tested in presence of 1 μM Deoxycortisol and variable amounts of inhibitors.

CYP11B2 [2] = target: T1, CYP11B2 (Homo sapiens (Human), UniProt P19099); assay: G-402 cellular enzyme assay, human CYP11B2 (aldosterone release, HTRF); format: cell-based; details: G-402 cells expressing human CYP11B2; 1 μM Deoxycorticosterone
T1 sequence (P19099 25-503): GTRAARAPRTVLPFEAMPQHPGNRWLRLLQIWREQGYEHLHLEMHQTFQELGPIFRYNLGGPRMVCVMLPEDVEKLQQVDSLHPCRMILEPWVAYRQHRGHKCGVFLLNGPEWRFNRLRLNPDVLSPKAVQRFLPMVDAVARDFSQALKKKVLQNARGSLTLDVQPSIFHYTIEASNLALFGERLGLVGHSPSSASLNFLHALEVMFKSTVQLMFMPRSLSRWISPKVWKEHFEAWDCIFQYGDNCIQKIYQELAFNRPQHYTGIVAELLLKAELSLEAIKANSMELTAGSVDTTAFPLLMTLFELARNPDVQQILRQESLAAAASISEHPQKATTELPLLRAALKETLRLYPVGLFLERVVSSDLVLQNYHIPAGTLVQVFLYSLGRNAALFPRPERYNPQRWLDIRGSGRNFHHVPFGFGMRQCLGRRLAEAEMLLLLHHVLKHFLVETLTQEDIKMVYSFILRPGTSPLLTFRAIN
Description: as §1, §2, §3, §4, §5, §6

CYP11B2 [3] = target: T1, CYP11B2; details: patients with primary aldosteronism; oral; cited from earlier work

Structure (SMILES): N#Cc1ccc([C@H]2CCCc3cncn32)cc1 [FAD286]
- plasma aldosterone [1]: reduced
- angiotensin II and salt-stimulated PAI-1 mRNA expression [1]: not FAD286 enhanced

Structure (SMILES): O=C(CC1CCc2cncc(-c3ccc(C(F)(F)F)c(F)c3)c21)NCC1CC1 (racemic) [Example 13, (rac)-N-(Cyclopropylmethyl)-2-[4-[3-fluoro-4-(trifluoromethyl)phenyl]-6,7-dihydro-5H-cyclopenta[c]pyridin-5-yl]acetamide]
- EC50 (human CYP11B1): 1150 nM
- EC50 (CYP11B2 [2]): 60 nM

Structure (SMILES): N#Cc1ccc([C@H]2CCc3cncn32)c(F)c1 [LCI699]
- blood pressure (CYP11B2 [3]): mildly decreased
- circulating aldosterone levels (CYP11B2 [3]): significantly lower
- hypokalemia (CYP11B2 [3]): corrected

Structure (SMILES): CC(=O)S[C@@H]1CC2=CC(=O)CC[C@]2(C)[C@H]2CC[C@@]3(C)[C@@H](CC[C@@]34CCC(=O)O4)[C@H]12 [spironolactone]
- plasma aldosterone [1]: increased
- angiotensin II and salt-stimulated PAI-1 mRNA expression [1]: enhanced
